Measured values taken from patent US9493485B2, “Spirocyclic dihydro-thiazine and dihydro-oxazine BACE inhibitors, and compositions and uses thereof” (Imago Pharmaceuticals, Inc., priority 2012, dated 2016).
Like-named read-outs stand apart in the source and are kept apart here.

Tests used:
BACE1 [1] = molecular target: T1, BACE1 (Homo sapiens (Human), UniProt P56817); experiment: BACE1 AlphaScreen assay (displacement of biotinylated BACE1 binding site probe); settings: read-out: BACE1 AS IC50
Description: (§1) BACE1 activity can be assessed in an AlphaScreen® assay. Compounds to be assessed (e.g. compounds as described in the above examples) are serially diluted 1:4 in DMSO, then plated by diluting 10 μL of compound with 40 μl of assay buffer (1×PBS, 0.01% Tween-20, pH 7.0, 0.05% BSA). The diluted compound is transferred (4 μL per well) to a 386 well assay plate and 4 μL of BACE1 enzyme ([…]) is added and incubated for 15 minutes. This assay uses a probe that is a BACE1 binding sight ligand linked to biotin, which can be displaced by test compound dependent on compound binding affinity. This of biotinylated probe (4 μL) is added and incubated for 1 hour, followed with 4 μL of donor and acceptor bead mixture and incubated for 2 hours. The fluorescent signal is read on a plate reader and the value as a function of compound concentration is used to determine the IC50. Compounds are also assessed for BACE1 and Cathepsin D activity using an FP Assay. Compounds to be assessed (e.g. compounds as described in the above examples) are serially diluted 1:3 with DMSO and each concentration point is transferred to a 96 well plate, 6 μL per well, followed by addition of 194 μL of assay buffer (100 mM sodium acetate, pH 4.5 with 0.001% Tween-20). A 10 μL compound sample from this plate is transferred to a well of a 384 well plate and combined with 10 μL per well of BACE1 enzyme (0.3 nM in assay buffer) or Cathepsin D enzyme (1.8 nM in assay buffer) and the plate is incubated at room temperature for 30 minutes.

Cathepsin D = Cathepsin D (Homo sapiens (Human), UniProt P07339); experiment: Cathepsin D FP assay; format: biochemical; settings: pH 4.5, read-out: CatD FP IC50
Description: as §1

BACE1 [2] = molecular target: T1, BACE1; experiment: BACE1 FP assay; format: biochemical; settings: pH 4.5
Description: as §1

[3] = system: BACE1 inhibition in HEKp293 cells transfected with APP751 gene (SWE293); experiment: SWE293 cellular assay: reduction of Aβ peptide production, ELISA; format: cell-based; settings: Homo sapiens, read-out: SWE293 ED50
Description: BACE1 inhibition is also assessed in a cellular assay. HEKp293 cells transfected with APP751 gene (SWE293, American Type Culture Collection CRL-1563) are used to assess compounds for reduction in levels of Aβ peptide production. SWE293 cell medium is DMEM supplemented with 10% fetal bovine serum and 2 mM L-glutamine, 1.0 mM sodium pyruvate, 25 mM Hepes Buffer, 0.4 mg/mL geneticin (G418, Gibco BRL 860-181IIJ). Cells are maintained diluting 1:10 for 4 days in T-150 flask and 35 mL of cell media. For plating, cells are rinsed with 5 mL of 1×PBS, trypsinized with 4 mL of 0.05% Tripsin for 1 minute, and 12 mL of cell media is added. These are centrifuged at 1000 rpm for 4 minutes and the media aspirated, then 8 mL of media per flask is added. Based on cell count, appropriate amounts of cell and cell media are combined, and 180 μl per well are plated (96 well) and the plates are incubated overnight at 37° C., 5% CO2. Compounds to be tested are serially diluted 1:3 in DMSO and twice in media (without G418) in V-bottom plates and incubated at room temperature. Plated cells are washed with media, 3×50 μL per well and 17 μL per well of appropriate dilution of compound is added. Plates are incubated for 2 hours, and the wash steps, compound addition and incubation are repeated. Sample is transferred to capture plate (prepared with 266 antibody, see e.g. Johnson-Wood et al., PNAS February 1997, 94: 1550-1555), along with a standard curve of Aβ-40. ELISA assay is used to assess Aβ levels, washing with TBS, 0.05% Tween20 pH 7.5, then adding 1.3 mg/mL 3D6 antibody 1:900 in specimen diluents with thimericol is added (100 μl per well) and incubated for 1 hour. Wash step is repeated and Streptavidin-AP diluted 1:1000 in specimen diluents with thimerisol is added (100 μL per well) and incubated for 1 hour. Wash step is repeated and fluorescent substrate is added, 100 μL per well and incubated for 10 minutes followed by reading the fluorescent signal on a plate reader.

[4] = dose at which Aβ level is reduced by 50%, HEKp293 SWE293 cells

T1 sequence (P56817 46-501): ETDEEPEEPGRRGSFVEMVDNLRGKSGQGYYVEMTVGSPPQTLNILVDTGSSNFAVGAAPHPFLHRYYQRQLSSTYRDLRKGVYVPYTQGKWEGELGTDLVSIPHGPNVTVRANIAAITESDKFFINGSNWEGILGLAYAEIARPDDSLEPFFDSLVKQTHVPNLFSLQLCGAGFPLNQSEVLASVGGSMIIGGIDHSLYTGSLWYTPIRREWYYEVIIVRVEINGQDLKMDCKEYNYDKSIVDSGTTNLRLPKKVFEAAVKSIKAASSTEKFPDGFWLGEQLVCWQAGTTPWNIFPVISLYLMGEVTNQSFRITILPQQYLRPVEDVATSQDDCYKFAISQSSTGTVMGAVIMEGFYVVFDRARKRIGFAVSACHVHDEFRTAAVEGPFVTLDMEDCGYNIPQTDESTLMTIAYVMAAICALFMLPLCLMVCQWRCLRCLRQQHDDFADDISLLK
Chain of Cathepsin D (P07339 65-412, species assumed): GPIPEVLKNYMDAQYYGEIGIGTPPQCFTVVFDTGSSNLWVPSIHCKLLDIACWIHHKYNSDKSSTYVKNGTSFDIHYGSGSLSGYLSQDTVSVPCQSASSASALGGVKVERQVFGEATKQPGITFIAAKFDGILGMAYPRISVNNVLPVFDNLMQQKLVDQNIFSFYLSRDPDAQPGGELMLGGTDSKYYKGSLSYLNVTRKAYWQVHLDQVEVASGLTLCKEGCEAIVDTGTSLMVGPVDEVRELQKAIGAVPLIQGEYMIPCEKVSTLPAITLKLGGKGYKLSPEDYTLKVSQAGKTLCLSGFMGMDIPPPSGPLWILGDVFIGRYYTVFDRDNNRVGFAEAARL

Row | SMILES | IC50 (Cathepsin D) [nM] | IC50 (BACE1 [2]) [nM] | IC50 (BACE1 [1]) [nM] | IC50 [3] [nM] | IC50 [3, 4] [nM]
1 | CC#Cc1cncc(-c2csc(C3(C)CC4(CCOCC4)OC(N)=N3)c2)c1 (centres unmarked) [Compound 8-102, 4-methyl-4-(4-(5-(prop-1-ynyl)pyridin-3-yl)thiophen-2-yl)-1,9-dioxa-3-azaspiro[5.5]undec-2-en-2-amine] | 4430 | 2290 | 69 | 365 | –
2 | CC#Cc1cncc(-c2csc([C@]3(C)CC4(CCOCC4)OC(N)=N3)c2)c1 [Compound 8-104, (S)-4-methyl-4-(4-(5-(prop-1-ynyl)pyridin-3-yl)thiophen-2-yl)-1,9-dioxa-3-azaspiro[5.5]undec-2-en-2-amine] | 14800 | 406 | 16 | 157 | –
3 | CC#Cc1cncc(-c2csc([C@@]3(C)CC4(CCOCC4)OC(N)=N3)c2)c1 [Compound 8-105, (R)-4-methyl-4-(4-(5-(prop-1-ynyl)pyridin-3-yl)thiophen-2-yl)-1,9-dioxa-3-azaspiro[5.5]undec-2-en-2-amine] | 5250 | 84900 | 1330 | 7470 | –
4 | C[C@@]1(c2cc(NC(=O)c3ccc(C(F)(F)F)cn3)ccc2F)CC2(CCC(F)(F)CC2)OC(N)=N1 [Compound 9-132, (S)—N-(3-(2-amino-9,9-difluoro-4-methyl-1-oxa-3-azaspiro[5.5]undec-2-en-4-yl)-4-fluorophenyl)-5-(trifluoromethyl)picolinamide] | – | – | 6 | 11 | –
5 | COc1cc(Cl)ccc1C(=O)Nc1ccc(F)c([C@]2(C)CC3(CCC3)OC(N)=N2)c1 [Compound 9-140, (S)—N-(3-(6-amino-8-methyl-5-oxa-7-azaspiro[3.5]non-6-en-8-yl)-4-fluorophenyl)-4-chloro-2-methoxybenzamide] | – | 9110 | 101 | 342 | –
6 | CC1(c2cc(NC(=O)c3ccc(F)cn3)ccc2F)CC2(CCCCC2)SC(N)=N1 (centres unmarked) [Compound 9-142, N-(3-(2-amino-4-methyl-1-thia-3-azaspiro[5.5]undec-2-en-4-yl)-4-fluorophenyl)-5-fluoropicolinamide] | – | – | – | – | 12
7 | C[C@@]1(c2cc(NC(=O)c3ccc(F)cn3)ccc2F)N=C(N)OC2(CCOCC2)C1(F)F [Compound 9-156, (S)—N-(3-(2-amino-5,5-difluoro-4-methyl-1,9-dioxa-3-azaspiro[5.5]undec-2-en-4-yl)-4-fluorophenyl)-5-fluoropicolinamide] | – | > 30000 | > 30000 | > 30000 | –
8 | C[C@@]1(c2cc(NC(=O)c3ccc(C#N)cn3)ccc2F)N=C(N)OC2(CCC2)C1(F)F [Compound 9-163, (S)—N-(3-(6-amino-9,9-difluoro-8-methyl-5-oxa-7-azaspiro[3.5]non-6-en-8-yl)-4-fluorophenyl)-5-cyanopicolinamide] | – | 38100 | 13400 | > 30000 | –
9 | C[C@@]1(c2cc(NCc3ccc(F)cn3)ccc2F)CC2(CCC2)OC(N)=N1 [Compound 10-169, (S)-8-(2-fluoro-5-((5-fluoropyridin-2-yl)methylamino)phenyl)-8-methyl-5-oxa-7-azaspiro[3.5]non-6-en-6-amine] | – | 179000 | 3720 | 5610 | –
10 | C[C@@]1(c2cc(/C=C/c3ccc(F)cc3)ccc2F)CC2(CCC2)OC(N)=N1 [Compound 12-177, (S,E)-8-(2-fluoro-5-(4-fluorostyryl)phenyl)-8-methyl-5-oxa-7-azaspiro[3.5]non-6-en-6-amine] | – | 21700 | 1160 | 1210 | –

Continued, in another order:

Row | IC50 (Cathepsin D) [nM] | IC50 (BACE1 [2]) [nM] | SMILES | IC50 (BACE1 [1]) [nM] | IC50 [3] [nM] | IC50 [3, 4] [nM]
11 | 7920 | 1360 | CC#Cc1cncc(-c2csc(C3(C)CC4(CCC4)OC(N)=N3)c2)c1 (centres unmarked) [Compound 8-103, 8-methyl-8-(4-(5-(prop-1-ynyl)pyridin-3-yl)thiophen-2-yl)-5-oxa-7-azaspiro[3.5]non-6-en-6-amine] | 30 | – | 582
12 | > 30000 | 12600 | CC1(c2cc(-c3cncnc3)ccc2F)CC2(CCOCC2)OC(N)=N1 (centres unmarked) [Compound 8-106, 4-(2-fluoro-5-(pyrimidin-5-yl)phenyl)-4-methyl-1,9-dioxa-3-azaspiro[5.5]undec-2-en-2-amine] | 569 | – | 673
13 | – | 227 | CC#Cc1cncc(-c2csc(C3(C)CC4(COC4)SC(N)=N3)c2)c1 (centres unmarked) [Compound 8-112, 8-methyl-8-(4-(5-(prop-1-ynyl)pyridin-3-yl)thiophen-2-yl)-2-oxa-5-thia-7-azaspiro[3.5]non-6-en-6-amine] | 17 | – | 222
14 | – | 2330 | C[C@@]1(c2cc(NC(=O)C3CC3)ccc2F)CC2(CCC(F)(F)CC2)OC(N)=N1 [Compound 9-134, (S)—N-(3-(2-amino-9,9-difluoro-4-methyl-1-oxa-3-azaspiro[5.5]undec-2-en-4-yl)-4-fluorophenyl)cyclopropanecarboxamide] | 801 | – | 882
15 | – | 1830 | C[C@@]1(c2cc(NC(=O)c3ccc(C4CC4)cn3)ccc2F)CC2(CCC(F)(F)CC2)OC(N)=N1 [Compound 9-137, (S)—N-(3-(2-amino-9,9-difluoro-4-methyl-1-oxa-3-azaspiro[5.5]undec-2-en-4-yl)-4-fluorophenyl)-5-cyclopropylpicolinamide] | 17 | – | 88
16 | 21500 | 8490 | C[C@]1(c2cc(NC(=O)c3ccc(F)cn3)ccc2F)CC2(CCOCC2)SC(N)=N1 [Compound 9-149, (R)—N-(3-(2-amino-4-methyl-9-oxa-1-thia-3-azaspiro[5.5]undec-2-en-4-yl)-4-fluorophenyl)-5-fluoropicolinamide] | > 1000 | – | –
17 | 10800 | 1560 | C[C@]1(c2cc(NC(=O)c3ccc(Cl)cn3)ccc2F)CC2(CCOCC2)SC(N)=N1 [Compound 9-152, (R)—N-(3-(2-amino-4-methyl-9-oxa-1-thia-3-azaspiro[5.5]undec-2-en-4-yl)-4-fluorophenyl)-5-chloropicolinamide] | – | – | –
18 | > 30000 | 33 | COc1cnc(C(=O)Nc2ccc(F)c([C@]3(C)CC4(CCOCC4)SC(N)=N3)c2)cn1 [Compound 9-153, (S)—N-(3-(2-amino-4-methyl-9-oxa-1-thia-3-azaspiro[5.5]undec-2-en-4-yl)-4-fluorophenyl)-5-methoxypyrazine-2-carboxamide] | – | – | < 123
19 | > 30000 | – | COc1cnc(C(=O)Nc2ccc(F)c(C3(C)N=C(N)OC4(CCC4)C3(F)F)c2)cn1 (centres unmarked) [Compound 9-164, N-(3-(6-amino-9,9-difluoro-8-methyl-5-oxa-7-azaspiro[3.5]non-6-en-8-yl)-4-fluorophenyl)-5-methoxypyrazine-2-carboxamide] | – | – | 195
20 | – | 8550 | C[C@@]1(c2cc(Nc3ncnc4cc(Cl)ccc34)ccc2F)CC2(CCC2)OC(N)=N1 [Compound 11-173, (S)-8-(5-(7-chloroquinazolin-4-ylamino)-2-fluorophenyl)-8-methyl-5-oxa-7-azaspiro[3.5]non-6-en-6-amine] | – | – | 687
21 | – | 4640 | C[C@@]1(c2cc(/C=C/c3ccc(Cl)cc3)ccc2F)CC2(CCC2)OC(N)=N1 [Compound 12-179, (S,E)-8-(5-(4-chlorostyryl)-2-fluorophenyl)-8-methyl-5-oxa-7-azaspiro[3.5]non-6-en-6-amine] | 510 | – | 1340
